The source of these data is US11904051B2, “Shear stress sensitive liposomes” (Universität Basel, priority 2018, dated 2024).

“And” between values parts separate entries of the source, which are not always exact repeats. Identical values can stand only once.

Holding throughout (assay type): physicochemical
Data set [1] in a line: Dynamic light scattering of liposome formulations before and after SANS heating cycles. The note with it: for PDI, After heating / Size (hydrodynamic), After heating: after the SANS experiments (n = 3); for Size (hydrodynamic), After heating: heating to 42° C. and back, eight months after; for Size (hydrodynamic), Before heating / PDI, Before heating: before the SANS experiments (n = 5); for Size (hydrodynamic), Before heating: room temperature, D2O. The method, then:
A library of artificial phospholipids was synthesised. Table 5 summarises the characterisation of the liposomal formulations concerning hydrodynamic size and polydispersity, before and after the temperature-dependent SANS measurements. The size of the DPPC and Pad-PC-Pad liposomes was (120±2) nm with a polydispersity index between 0.01 and 0.20. […] Pad-Pad-PC and Sur-PC-Sur liposomes were 400 to 1,500 nm in size with a polydispersity index of 0.57.
DLS measurements were carried out on a DelsaMax PRO (Beckman Coulter, USA) at room temperature and at a lipid concentration of 0.3 mg/mL in D2O. The data were averaged among five independent measurements before heating cycles and three measurements eight months after applying heating cycles. Data were treated with the cumulant analysis method.

Data set [2] in a line: Differential scanning calorimetry, main phase transition of vesicle membranes. The conditions noted are these: for Tm: main phase transition temperature of liposome membrane. An excerpt: Interdigitation of membrane leaflets also influences the membranes main-phase transition temperature. […] Also, the value for the bilayer main-phase transition temperature is 11.5 K higher than the calculated critical temperature from the monolayer experiments, where no interdigitation is possible.
A general note: DSC measures the heat that a sample takes up or gives off during a temperature scan.

Data set [3] can be described thus: Release experiments with 5(6)-carboxyfluorescein-loaded large unilamellar vesicles (LUVET100), spontaneous and vortex-triggered. The note with it: for Release at RT after 60 s vortex / Release 37° C. after 60 s vortex: mechanically induced release, 60 s vortexing; for Release at RT after 60 s vortex / Release at RT after 7 days: 22° C. (RT); for Release at RT after 7 days: spontaneous release of 5(6)-carboxyfluorescein; for release at 37° C. without vortexing: without vortexing/shaking. The source says:
FIG. 8 Release experiments using 5(6)-carboxyfluorescein-loaded large unilamellar vesicles comprising 1,3-diheptadecanamidopropan-2-yl (2-(trimethylammonio) ethyl) phosphate (4) obtained via extrusion through a 100 nm track-edged filter membrane (LUVET100). Triggered release was induced by shaking the samples for a specific amount of time on a vortex-shaker.
Previously the inventors reported the 5(6)-carboxyfluorescein release from vesicles containing 1,3-palmitoylamido-1,3-deoxy-sn-glycero-2-phosphatidylcholine (2) (Holme et al., Nat. Nanotechnol. 2012, 7, 536-543). […] Increasing the Tm promises improved release properties. […] This leads to a lower leakage of the vesicles at 22° C. (room temperature) as well as 37° C. (average human body temperature) (FIG. 8). A prolongation if the acyl chain to the artificial C18 phospholipid 1,3-stearoylamido-1,3-deoxy-sn-glycero-2-phosphatidylcholine leads to an increased Tm of 52° C., but this phospholipid forms almost no liposomes anymore.
Each sample was treated with Triton X-100 to induce a full release of 5(6)-carboxy fluorescein.
Large unilamellar vesicles with a diameter of 100 nm (LUVET100) of the 1,3-diheptadecanamidopropan-2-yl (2-(trimethylammonio) ethyl) phosphate (4) were prepared following the extrusion protocol: in a 25 ml round bottom flask, 10 mg of the lipid was dissolved in CH2Cl2. After evaporation of the organic solvent, the film was further dried under high vacuum (40 mbar) overnight. Then the film was hydrated with the internal buffer for 30 min (1 ml, 50 mM 5(6)-carboxyfluorescein, 10 mM HEPES buffer (AppliChem), 10 mM NaCl dissolved in pure water, pH 7.4). Now at least 5 freeze-thaw cycles (liquid N2 to 65° C.) were carried out before the suspension was extruded 11 times using a Mini Extruder (Avanti Polar Lipids, USA) using track-edged filters with a mesh size of 100 nm (Whatman, USA). The external buffer was then exchanged on a size exclusion column (1.5×20 cm Sephadex G-50 column) in external buffer (107 mM NaCl dissolved in ultrapure water, 10 mM HEPES, pH 7.4).

[4] abbreviates: LUVs, heating and cooling rates of 0.5° C./min.

Turning to `CCCCCCCCCCCCCCCC(=O)OC[C@H](COP(=O)([O-])OCC[N+](C)(C)C)OC(=O)CCCCCCCCCCCCCCC` [DPPC, 1,2-dipalmitoyl-sn-glycero-3-phosphocholine], in data set [1], the “PDI, After heating” value was 0.33 ± 0.02; the “Size (hydrodynamic), After heating” value was 600 ± 40 nm; the “Size (hydrodynamic), Before heating” value was 120±2 nm. Further, in data set [1] (listed as DPPC (1)), the “Size (hydrodynamic), Before heating” value was 120 ± 2 nm and the “PDI, Before heating” value is on record as 0.01 ± 0.01. In addition, in data set [2], the Tm was 41 °C. In data set [3], the “Release at 37° C. after 2 h” value came out at 12.2%, the “Release at RT after 60 s vortex” value is 1.1%, the “Release 37° C. after 60 s vortex” value was found to be 17.9% and the “Release at RT after 7 days” value came to 4.5%.

In the case of `CCCCCCCCCCCCCCCCC(=O)NCC(CNC(=O)CCCCCCCCCCCCCCCC)OP(=O)([O-])OCC[N+](C)(C)C` [Rad-PC-Rad, 1,3-diheptadecanamidopropan-2-yl (2-(trimethylammonio)ethyl) phosphate], in data set [1], the “DLS most probable / dominant or smaller population size” value is recorded as “about 150 nm”; the “PDI, After heating” value worked out at 0.32 ± 0.03; the “Size (hydrodynamic), After heating” value worked out at 700 ± 100 nm; the “PDI, Before heating” value amounted to 0.57 ± 0.01. Moreover, the “Size (hydrodynamic), Before heating” value in data set [1] (listed as Rad-PC-Rad (5)) is 150 ± 3 nm. Moreover, in data set [2] (setting [4]), the “change in enthalpy at main phase transition” value turned out to be 5.774 kcal/mol and the “main phase transition temperature” value is 44.7 °C. In data set [2], the Tm is 45 °C. In data set [3], the “Release at 37° C. after 2 h” value is 6%; the “Release at RT after 60 s vortex” value was 24% and 23.8%; the “Release 37° C. after 60 s vortex” value is recorded as 34%; the “Release at RT after 7 days” value was 9% and 9.4%.

Take `CCCCCCCCCCCCCCCC(=O)NCC(CNC(=O)CCCCCCCCCCCCCCC)OP(=O)([O-])OCC[N+](C)(C)C` [Pad-PC-Pad, 1,3-palmitoylamido-1,3-deoxy-sn-glycero-2-phosphatidylcholine]: in data set [1], the “PDI, After heating” value is recorded as 0.33 ± 0.04; the “Size (hydrodynamic), After heating” value came out at 53 ± 4 nm; the “Size (hydrodynamic), Before heating” value was 120±2 nm. Also, in data set [1] (listed as Pad-PC-Pad (4)), the “Size (hydrodynamic), Before heating” value is 126 ± 4 nm and the “PDI, Before heating” value turned out to be 0.19 ± 0.04. Further, the Tm in data set [2] was found to be 37 °C. Moreover, in data set [3], the “Release at 37° C. after 2 h” value is reported as 100%, the “release at 37° C. without vortexing” value turned out to be 100%, the “Release at RT after 60 s vortex” value was determined as 43.4% and the “Release 37° C. after 60 s vortex” value was found to be 100%. For the same compound, the “Release at RT after 7 days” value in data set [3] is 15.5%. Further, the “release at 37° C. without vortexing” value in data set [3] (listed as 1,3-palmitoylamido-1,3-deoxy-sn-glycero-2-phosphatidylcholine) was “immediate full release”.
